Experimental data as given in article PMC6874530, “Structural analysis identifies an escape route from the adverse lipogenic effects of liver X receptor ligands” (Communications Biology, 2019).
Several values for one entry are separate records, joined by “and”; a condition that tells them apart may be missing. Identical values can stand only once. Like-named read-outs stand apart in the source and are kept apart here.

Columns and labels:
[1] = molecular target: T1, LXRβ (Homo sapiens, UniProt P55055); experiment: Gal4 one hybrid reporter gene (transactivation) assay in U2OS cells, LXRβ; type: cell-based; settings: for Emax: U2OS, 40 h, read-out: LXRβ transactivation Agonist efficacy, %; for Potency-based LXRβ selectivity over LXRα: Gal4 reporter gene assays
T1 construct: expression vectors pSG5-Gal4-LXRα LBD or pSG5-Gal4-LXRβ LBD; expressed in transfected cells; host or cells: U2OS osteosarcoma cells
T1 sequence (P55055 222-460 limits assumed): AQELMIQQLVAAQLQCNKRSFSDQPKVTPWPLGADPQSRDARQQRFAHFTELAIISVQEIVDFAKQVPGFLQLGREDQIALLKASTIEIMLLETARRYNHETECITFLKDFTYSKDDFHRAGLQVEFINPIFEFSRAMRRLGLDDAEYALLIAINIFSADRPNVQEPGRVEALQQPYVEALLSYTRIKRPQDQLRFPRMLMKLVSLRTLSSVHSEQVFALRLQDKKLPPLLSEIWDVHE
Procedure: Transactivation assays were performed in U2OS osteosarcoma cells (ATCC, USA). […] Ligands were added at ten different concentrations 2 h post transfection and the luciferase activity was measured after 40 h.

[2] = test system: Abca1 mRNA in intestine; experiment: intestinal Abca1 mRNA induction in C57BL/6 mice (Emax model); type: in vivo, mouse; settings: for ED50: Mus musculus
Procedure: All procedures involving animals were conducted in accordance with accepted standards of good animal practice and approved by the respective local animal ethics committees (Gothenburg region Local Ethics Review Committee on Animal experiments and University of Virginia Animal Care and Use Committee). Male C57BL/6JOlaHsd mice were retrieved from Harlan Laboratories (Horst, The Netherlands) around 7 weeks of age. In the studies with BMS-852907, male 8-week C57BL/6J mice (Jackson Laboratories) were used. Mice were given ad libitum access to water and standard rodent chow during the studies.
Solid compounds were solubilized in PEG400/Ethanol/Solutol/Water solution (36.3/9.1/4.6/50%). Compounds were given daily by oral gavage, 5 ml kg^−1, at doses ranging from 0.1 to 100 μmol kg^−1 of body weight for 4 days. Animals were terminated 3 h after the last dose.
(§1) At termination, the whole-blood volume was drawn from isoflurane-anesthetized mice via an incision in the carotid artery into EDTA blood tubes (S-Monovette®, EDTA KE/1.3 mL, Sarstedt, Nümbrecht, Germany or BD Microtainers®, Benton, Dickinson and Company, Franklin Lakes, New Jersey, USA). Blood samples were placed on ice and centrifuged within an hour (15 min, 2500 × g, 4 °C or 5 min, 16000 × g, 4 °C). The plasma was then dispensed in separate tubes and kept at −80 °C for later analysis of compound concentration and TG levels. For the analysis of intestinal Abca1 transcript levels, a 3–5-mm long segment of the duodenum was excised and cleared from any gut contents. Tissues were instantly snap frozen in liquid nitrogen and stored at −80 °C.
Snap-frozen intestinal tissues were quickly disrupted in QIAzol® (Qiagen, Hilden, Germany) or PureZOL™ (Bio-Rad Laboratories, Hercules, California, USA) by using a bead tissue homogenizer. Lysates were mixed with chloroform and centrifuged at 6000 × g for 15 min at 4 °C. Total RNA was purified from the upper aqueous phase on the ABI PRISM™ 6100 Nucleic Acid PrepStation (Applied Biosystems, Foster City, USA) or by using the RNeasy kit® (QIAGEN Sciences Inc., Germantown, Maryland, USA) including on-column DNase treatment by using the respective manufacturer’s protocol and reagents. Concentration of total RNA was determined on a NanoDrop™ ND-100 Spectrophotometer (Saveen Werner, Lögstrup, Sweden). The RNA templates were transferred to cDNA by reverse transcription by using the High-Capacity cDNA Reverse Transcription Kit (Applied Biosystems, Foster City, USA) according to the manufacturer’s protocol. Mouse ATP-binding cassette subfamily A member 1 (Abca1) was analyzed by using the forward primer 5′-[…]-3′, reverse primer 5′-[…]-3′, and the dual-labeled probe 5′-6FAM-[…]-TAMRA-3′. Mouse ribosomal protein large P0 (Rplp0, 36b4) was analyzed by using the forward primer 5′-[…]-3′, reverse primer 5′-[…]-3′, and the FAM-labeled probe 5′-[…]-TAMRA-3′. In the study with BMS-852907, RT-qPCR reactions were carried out in separate triplicate wells for Abca1 and Rplp0, respectively, by using 20 ng of cDNA template, 385 nM of the above-mentioned primers, and iQ™ SYBR Green Supermix (Bio-Rad, Hercules, California, USA) on a Bio-Rad MyiQ instrument (Bio-Rad, Hercules, California, USA). In the other studies, 400 nM Abca1 forward and reverse primers, 200 nM Abca1 probe, 200 nM Rplp0 forward and reverse primers, and 100 nM Rplp0 probe were mixed with 15 ng of cDNA template and TaqMan™ Gene Expression Master Mix (Applied Biosystems, Foster City, USA). The RT-qPCR reactions were performed on a 7500 Real-time PCR system (Applied Biosystems, Foster City, USA). Cycle threshold values (Ct) were retrieved from the instrument software. Relative changes in mRNA expression were calculated by using the comparative cycle method (2^−ΔΔCt). […]

[3] = test system: plasma triglycerides; experiment: plasma TG induction in C57BL/6 mice vs plasma compound concentration (log-linear model); type: in vivo, mouse; settings: for TG induction in plasma m (scaling factor) / TG induction in plasma C2, drug concentration corresponding to a twofold increase in TG levels: (% RSE); for TG induction in plasma Attributed class: mouse, in vivo
Procedure: Male C57BL/6JOlaHsd mice were retrieved from Harlan Laboratories (Horst, The Netherlands) around 7 weeks of age. […] Mice were given ad libitum access to water and standard rodent chow during the studies.
Compounds were given daily by oral gavage, 5 ml kg^−1, at doses ranging from 0.1 to 100 μmol kg^−1 of body weight for 4 days. Animals were terminated 3 h after the last dose.
as §1
Plasma triglyceride levels were analyzed by using the Triglycerides/Glycerol Blanked reagent kit (Roche Diagnostics GMBH, Mannheim, Germany). Samples were measured on an ABX Pentra 400 instrument (Horiba Medical, Irvine, California, USA) or Cobas Mira plus instrument (Roche Diagnostics Corporation, Indianapolis, USA). […] Absorbance was measured by using a Tecan Infinite M200 plate reader (Tecan Austria GmbH, Salzburg, Austria).
About 25 µL of plasma was precipitated with 150 µL of cold acetonitrile containing 0.2% formic acid. […] Sample analysis was performed by using a reversed-phase high-pressure liquid chromatography system coupled to a Quattro Ultima triple-quadrupole mass spectrometer (Waters, UK). A rapid 2-min 4–90% (vol/vol) acetonitrile (containing 0.2% formic acid) gradient was used for chromatographic separation.
To rank the compounds, the drug concentration (C2) needed to generate a twofold increase in plasma TG was estimated by rearranging Eq. (2):3 C2=exp^2fold−BL−1/m^1/γ

[4] = U2OS cells, Gal4-LXRβ LBD, value (SD, n), read-out: LXRβ transactivation pEC50 (converted)
[5] = maximal activation compared with a reference full agonist, value (SD, n)
[6] = po, read-out: Abca1 mRNA induction in intestine Attributed class
[7] = oral gavage daily for 4 days, C57BL/6 mice, (% RSE), read-out: Abca1 mRNA induction in intestine ED50

CN(C)C(=O)c1cccc(CCCCNC2=C(c3ccccc3)S(=O)(=O)N(C(C)(C)C)C2=O)c1 [AZ1]
EC50 [1, 4]: 30.9 nM | Emax [1, 5]: 76% | class of intestinal Abca1 induction [2]: high ABCA1 | ED50 [2, 6]: ≤ 11.3 µmol/kg | ED50 [2, 7]: < 30 µmol/kg | TG induction in plasma m (scaling factor) [3]: 3.88 (30) | TG induction in plasma Attributed class [3]: Lipogenic | TG induction in plasma C2, drug concentration corresponding to a twofold increase in TG levels [3]: 0.214 (58) μM

CC(CCCc1cccc(S(N)(=O)=O)n1)NC1=C(c2ccccc2)S(=O)(=O)N(C(C)C)C1=O (stereo not shown) [AZ2]
Potency-based LXRβ selectivity over LXRα [1]: 11 fold | EC50 [1, 4]: 8.71 nM | Emax [1, 5]: 97.3% | ED50 [2, 6]: ≤ 11.3 µmol/kg | ED50 [2, 7]: 9.64 µmol/kg | TG induction in plasma m (scaling factor) [3]: 9.28 (63) | TG induction in plasma C2, drug concentration corresponding to a twofold increase in TG levels [3]: 0.041 (120) μM

CC(C)N1C(=O)C(NCCCCc2cccc(S(N)(=O)=O)n2)=C(c2ccccc2)S1(=O)=O [AZ3]
Potency-based LXRβ selectivity over LXRα [1]: 9 fold | EC50 [1, 4]: 75.9 nM | Emax [1, 5]: 94.3% | EC50 ([1]; read-out: potency in LXRβ-based assay): < 100 nM | ED50 [2, 6]: ≤ 11.3 µmol/kg | ED50 [2, 7]: 1.49 µmol/kg | TG induction in plasma m (scaling factor) [3]: 0.897 (20) | TG induction in plasma C2, drug concentration corresponding to a twofold increase in TG levels [3]: 3.42 (38) μM

CC(C)(C)N1C(=O)C(NC2CCN(c3ncc(CC(=O)O)cc3Cl)CC2)=C(c2ccccc2)S1(=O)=O [AZ4]
EC50 [1, 4]: 148 nM | Emax [1, 5]: 110% | ED50 [2, 6]: ≤ 11.3 µmol/kg | ED50 [2, 7]: 5.65 µmol/kg | TG induction in plasma m (scaling factor) [3]: 1.47 (28) | TG induction in plasma C2, drug concentration corresponding to a twofold increase in TG levels [3]: 1.35 (54) μM

CN(C)C(=O)c1cnc(N2CC[C@@H](CNC3=C(c4ccccc4)S(=O)(=O)N(C(C)(C)C)C3=O)C2)c(Cl)c1 [AZ5]
Potency-based LXRβ selectivity over LXRα [1]: 11 fold | EC50 [1, 4]: 97.7 nM | Emax [1, 5]: 66.5% | class of intestinal Abca1 induction [2]: low ABCA1 inducers | ED50 [2, 6]: > 11.3 µmol/kg | ED50 [2, 7]: 17.2 µmol/kg

CC(C)N1C(=O)C(NC2CCN(c3ncc(CC(=O)O)cc3Cl)CC2)=C(c2ccccc2)S1(=O)=O [AZ6]
EC50 [1, 4]: 617 nM | Emax [1, 5]: 95.3% | class of intestinal Abca1 induction [2]: high ABCA1 inducers | ED50 [2, 6]: ≤ 11.3 µmol/kg | ED50 [2, 7]: 11.3 µmol/kg | TG induction in plasma Attributed class [3]: Non-lipogenic

CC(C)(C)N1C(=O)C(Cc2ccccc2)=C(NC2CCN(c3ncc(CC(=O)O)cc3Cl)CC2)C1=O [AZ7]
EC50 [1, 4]: 537 nM | Emax [1, 5]: 104% | class of intestinal Abca1 induction [2]: high ABCA1 | ED50 [2, 6]: ≤ 11.3 µmol/kg | ED50 [2, 7]: < 30 µmol/kg | TG induction in plasma Attributed class [3]: Non-lipogenic

O=C1C(Cc2ccccc2)=C(NCCCCc2ccccc2)C(=O)N1Cc1ccccc1 [AZ8]
EC50 [1, 4]: 1290 nM | Emax [1, 5]: 102% | class of intestinal Abca1 induction [2]: low ABCA1 inducers | ED50 [2, 6]: > 11.3 µmol/kg | ED50 [2, 7]: 341 µmol/kg | TG induction in plasma Attributed class [3]: Non-lipogenic

CC(C)(O)c1cn(-c2ccc(-c3cc(F)c(CO)c(S(C)(=O)=O)c3)cc2F)c(C(C)(C)c2c(Cl)cccc2Cl)n1 [BMS-852927]
agonist activity in the Gal4 reporter gene assay, LXRβ [1]: No signal was observed | EC50 [1, 4]: > 20000 nM | ED50 [2, 6]: ≤ 11.3 µmol/kg | ED50 [2, 7]: 2.1 µmol/kg | TG class [3]: non-lipogenic | TG induction in plasma m (scaling factor) [3]: 0.066 (18) | TG induction in plasma Attributed class [3]: Non-lipogenic | TG induction in plasma C2, drug concentration corresponding to a twofold increase in TG levels [3]: 477 μM and 477 (35) μM

O=C(O)Cc1ccc(CNC(=O)[C@@H]2Cc3ccccc3N2S(=O)(=O)c2ccc(-c3ccccc3C(F)(F)F)cc2)cc1 [F1, reference compound]
EC50 [1, 4]: 3890 nM | Emax [1, 5]: 105% | class of intestinal Abca1 induction [2]: high ABCA1 | ED50 [2, 6]: ≤ 11.3 µmol/kg | ED50 [2, 7]: < 30 µmol/kg | TG induction in plasma m (scaling factor) [3]: 12.1 (38) | TG induction in plasma Attributed class [3]: Lipogenic | TG induction in plasma C2, drug concentration corresponding to a twofold increase in TG levels [3]: 0.025 (72) μM

O=C(O)Cc1cccc(OCCCN(Cc2cccc(C(F)(F)F)c2Cl)CC(c2ccccc2)c2ccccc2)c1 [GW3965, reference compound]
EC50 [1, 4]: 347 nM | Emax [1]: 77.1% | ED50 [2, 6]: ≤ 11.3 µmol/kg | ED50 [2, 7]: 0.969 µmol/kg | TG class [3]: non-lipogenic | TG induction in plasma m (scaling factor) [3]: 0.244 (18) | TG induction in plasma Attributed class [3]: Non-lipogenic | TG induction in plasma C2, drug concentration corresponding to a twofold increase in TG levels [3]: 40.2 μM and 40.2 (33) μM

Fc1ccc(-c2c3cccc(C(F)(F)F)c3nn2Cc2ccc(F)cc2Cl)cc1 [LXR-623, reference compound]
EC50 [1]: 1860 nM | Emax [1]: 94.3% | class of intestinal Abca1 induction [2]: low ABCA1 inducers | ED50 [2, 6]: > 11.3 µmol/kg | ED50 [2, 7]: 31.5 µmol/kg | TG class [3]: non-lipogenic | TG induction in plasma Attributed class [3]: Non-lipogenic | trend in plasma TG levels ([3]; within the explored concentration range): no trends toward increased TG levels

O=S(=O)(c1ccccc1)N(CC(F)(F)F)c1ccc(C(O)(C(F)(F)F)C(F)(F)F)cc1 [T0901317, reference compound]
LXRβ transactivation Agonist efficacy, % [1, 5]: 95.5 (6.4, n = 2) % | ED50 [2, 6]: ≤ 11.3 µmol/kg | ED50 [2, 7]: 4.11 µmol/kg | TG induction in plasma m (scaling factor) [3]: 0.784 (17) | TG induction in plasma Attributed class [3]: Lipogenic | TG induction in plasma C2, drug concentration corresponding to a twofold increase in TG levels [3]: 4.41 (33) μM
